Consider ten compounds from patent US20240252488A1 (KOREA RESEARCH INSTITUTE OF CHEMICAL TECHNOLOGY, priority 2020, published 2024).

In test [1] the test system is FADD−/− Jurkat cells. Briefly: Necroptosis inhibition assay, TNF-α-induced necroptosis (CellTiter-Glo 2.0). Type of test: cell-based, human. Conditions: TNF-α 15 ng/mL; for Necroptosis inhibition assay (Rescue %) 1 μM: compound 1 μM; for Necroptosis inhibition assay (Rescue %) 10 μM: compound 10 μM. The method in brief:
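Necroptosis was triggered by TNF-α at 15 ng/mL final following 30 minutes of compound exposure (0.1, 1 or 10 μM final). Incubation ran 20 to 24 hours at 37° C under 5% CO2; cell ATP was then quantified by luminescence.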
On the technique in general: In ATP-based viability assays light output follows the ATP content of the culture.

The target in test [2] is T1, MLKL (Homo sapiens, UniProt Q8NB16).
T1 sequence (Q8NB16 1-471): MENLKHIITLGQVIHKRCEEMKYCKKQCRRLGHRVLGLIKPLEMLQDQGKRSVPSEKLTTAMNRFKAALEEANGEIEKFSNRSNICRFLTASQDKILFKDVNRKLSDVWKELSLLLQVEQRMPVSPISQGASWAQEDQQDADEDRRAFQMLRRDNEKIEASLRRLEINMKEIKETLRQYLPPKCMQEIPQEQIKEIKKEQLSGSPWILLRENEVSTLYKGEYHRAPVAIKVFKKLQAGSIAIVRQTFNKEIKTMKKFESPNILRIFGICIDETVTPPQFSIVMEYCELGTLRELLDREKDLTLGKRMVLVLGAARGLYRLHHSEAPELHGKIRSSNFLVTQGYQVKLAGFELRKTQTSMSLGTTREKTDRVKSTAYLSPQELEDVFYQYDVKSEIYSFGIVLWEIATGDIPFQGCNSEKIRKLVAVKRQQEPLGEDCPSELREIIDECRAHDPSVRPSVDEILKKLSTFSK
Briefly: MLKL degradation assay in HepG2 cell line (western blot). It is filed as cell-based. More on the design: endogenous in cells; host or cells: HepG2 or HaCaT. The settings on record: cell line not given; for Degradation assay (Degradation %) 1 μM: compound 1 μM; for Degradation assay (Degradation %) 10 μM: compound 10 μM. In a few lines: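 After treating HepG2 with test compounds (final 1 μM or 10 μM) for 20-24 h, we lysed cells, equalized protein by BCA and probed MLKL by overnight primary antibody at 4 °C followed by chemiluminescent detection.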
On the technique in general: Immunoblotting shows a protein as a band on a membrane.

Test [3] addresses T1, MLKL. Briefly: Measurement of binding affinity with MLKL receptor (competitive binding assay, Kd). More on the design: made in house; host or cells: HEK 293 cell line (T7 phage in E. coli BL21-derived host is also described). In a few lines:
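MLKL was produced in HEK 293 cells and tagged with DNA for detection. Liganded beads were blocked with excess biotin and washed to cut non-specific binding, then compounds (111× DMSO stocks, 0.9% DMSO in assay) competed for binding. Eluate kinase was measured by qPCR for Kd.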

The structures appear in SMILES notation.

One may read the Kd as the concentration at which binding is half-saturated. A lower Kd goes with tighter binding. For the compound `Nc1ncc(-c2cnn(C3CCN(C(=O)C4CCN(C(=O)CNc5cccc6c5C(=O)N(C5CCC(=O)NC5=O)C6=O)CC4)CC3)c2)nc1C(=O)OC(C(=O)Nc1ccc(F)cc1)c1ccccc1` (centres unmarked) [TDH-275, 2-((4-fluorophenyl)amino)-2-oxo-1-phenylethyl 3-amino-6-(1-(1-(1-((2-(2,6-dioxopiperidin-3-yl)-1,3-dioxoisoindolin-4-yl)glycyl)piperidine-4-carbonyl)piperidin-4-yl)-1H-pyrazol-4-yl)pyrazine-2-carboxylate], in test [1], the “Necroptosis inhibition assay (Rescue %) 1 μM” value was 69.59% and the “Necroptosis inhibition assay (Rescue %) 10 μM” value stood at 69.98%. Moreover, in test [2], the “Degradation assay (Degradation %) 1 μM” value was found to be 57.84% and the “Degradation assay (Degradation %) 10 μM” value stood at 63.11%. The affinity in test [3], expressed as Kd, was 4.9 nM.
In the case of `Nc1ncc(-c2cnn(C3CCN(CCOCCOCCNC(=O)CNc4ccc5nnn(C6CCC(=O)NC6=O)c(=O)c5c4)CC3)c2)nc1C(=O)O[C@@H](C(=O)Nc1ccc(F)cc1)c1ccccc1` (stereo partly drawn) [TDH-174, (R)-2-((4-fluorophenyl)amino)-2-oxo-1-phenylethyl 3-amino-6-(1-(1-(2-(2-(2-(2-((3-(2,6-dioxopiperidin-3-yl)-4-oxo-3,4-dihydrobenzo[d][1,2,3]triazin-6-yl)amino)acetamido)ethoxy)ethoxy)ethyl)piperidin-4-yl)-1H-pyrazol-4-yl)pyrazine-2-carboxylate], in test [1], the “Necroptosis inhibition assay (Rescue %) 1 μM” value was 16.47% and the “Necroptosis inhibition assay (Rescue %) 10 μM” value worked out at 42.59%. Also, in test [2], the “Degradation assay (Degradation %) 1 μM” value turned out to be 49.38% and the “Degradation assay (Degradation %) 10 μM” value is reported as 52.62%. The Kd in test [3] came out at 2.2 nM.
For `Nc1ncc(-c2cnn(C3CCN(CCCN4CCN(C(=O)Cc5cccc(NC6=CC(=O)N(C7CCC(=O)NC7=O)C6=O)c5)CC4)CC3)c2)nc1C(=O)O[C@@H](C(=O)Nc1ccc(F)cc1)c1ccccc1` (stereo partly drawn) [TDH-495, (R)-2-((4-fluorophenyl)amino)-2-oxo-1-phenylethyl 3-amino-6-(1-(1-(3-(4-(2-(3-((1-(2,6-dioxopiperidin-3-yl)-2,5-dioxo-2,5-dihydro-1H-pyrrol-3-yl)amino)phenyl)acetyl)piperazin-1-yl)propyl)piperidin-4-yl)-1H-pyrazol-4-yl)pyrazine-2-carboxylate], in test [1] (FADD−/− Jurkat cells), the “Necroptosis inhibition assay (Rescue %) 1 μM” value came to 42.19% and the “Necroptosis inhibition assay (Rescue %) 10 μM” value is on record as 17.62%. In test [2], the “Degradation assay (Degradation %) 1 μM” value came out at 81.34% and the “Degradation assay (Degradation %) 10 μM” value is given as 85.73%. For the same compound, in test [3], the affinity, expressed as Kd, was 1.3 nM.
In the case of `Nc1ncc(-c2cnn(C3CCN(CCOC4CCN(C(=O)C5CCN(C6=CC(=O)N(C7CCC(=O)NC7=O)C6=O)CC5)CC4)CC3)c2)nc1C(=O)O[C@@H](C(=O)Nc1ccc(F)cc1)c1ccccc1` (stereo partly drawn) [TDH-529, (R)-2-((4-fluorophenyl)amino)-2-oxo-1-phenylethyl 3-amino-6-(1-(1-(2-((1-(1-(1-(2,6-dioxopiperidin-3-yl)-2,5-dioxo-2,5-dihydro-1H-pyrrol-3-yl)piperidine-4-carbonyl)piperidin-4-yl)oxy)ethyl)piperidin-4-yl)-1H-pyrazol-4-yl)pyrazine-2-carboxylate], in test [1] (FADD−/− Jurkat cells), the “Necroptosis inhibition assay (Rescue %) 1 μM” value is listed as 36.72% and the “Necroptosis inhibition assay (Rescue %) 10 μM” value was 15.86%. For the same compound, in test [2], the “Degradation assay (Degradation %) 1 μM” value came out at 24.89% and the “Degradation assay (Degradation %) 10 μM” value is recorded as 66.48%. In test [3], the Kd stood at 0.25 nM.
Take `Nc1ncc(-c2cnn(C3CCN(CC4CCN(C(=O)C5CN(c6ccc7nnn(C8CCC(=O)NC8=O)c(=O)c7c6)C5)CC4)CC3)c2)nc1C(=O)O[C@@H](C(=O)Nc1ccc(F)cc1)c1ccccc1` (stereo partly drawn) [TDH-170, (R)-2-((4-fluorophenyl)amino)-2-oxo-1-phenylethyl 3-amino-6-(1-(1-((1-(1-(3-(2,6-dioxopiperidin-3-yl)-4-oxo-3,4-dihydrobenzo[d][1,2,3]triazin-6-yl)azetidine-3-carbonyl)piperidin-4-yl)methyl)piperidin-4-yl)-1H-pyrazol-4-yl)pyrazine-2-carboxylate]: in test [1], the “Necroptosis inhibition assay (Rescue %) 1 μM” value is given as 44.08% and the “Necroptosis inhibition assay (Rescue %) 10 μM” value is given as 23.26%. In addition, in test [2], the “Degradation assay (Degradation %) 1 μM” value was 60.57% and the “Degradation assay (Degradation %) 10 μM” value was 58.27%. This compound also displayed a Kd in test [3] of 4.6 nM.
Consider `Nc1ncc(-c2cnn(C3CCN(CCC4CCN(C(=O)C5CCN(c6ccc7nnn(C8CCC(=O)NC8=O)c(=O)c7c6)CC5)CC4)CC3)c2)nc1C(=O)OC(C(=O)Nc1ccc(F)cc1)c1ccccc1` (centres unmarked) [TDH-290, 2-((4-fluorophenyl)amino)-2-oxo-1-phenylethyl 3-amino-6-(1-(1-(2-(1-(1-(3-(2,6-dioxopiperidin-3-yl)-4-oxo-3,4-dihydrobenzo[d][1,2,3]triazin-6-yl)piperidine-4-carbonyl)piperidin-4-yl)ethyl)piperidin-4-yl)-1H-pyrazol-4-yl)pyrazine-2-carboxylate], for which, in test [1], the “Necroptosis inhibition assay (Rescue %) 1 μM” value was determined as 90.57% and the “Necroptosis inhibition assay (Rescue %) 10 μM” value was 84.93%. Also, in test [2], the “Degradation assay (Degradation %) 1 μM” value was determined as 56.44% and the “Degradation assay (Degradation %) 10 μM” value is reported as 44.97%. In test [3], binding was characterised by a dissociation constant (Kd) of 5.3 nM.
Consider `Nc1ncc(-c2cnn(C3CCN(C(=O)CC4CCN(C(=O)CNc5ccc6c(c5)C(=O)N(C5CCC(=O)NC5=O)C6=O)CC4)CC3)c2)nc1C(=O)O[C@@H](C(=O)Nc1ccc(F)cc1)c1ccccc1` (stereo partly drawn) [TDH-340, (R)-2-((4-fluorophenyl)amino)-2-oxo-1-phenylethyl 3-amino-6-(1-(1-(2-(1-((2-(2,6-dioxopiperidin-3-yl)-1,3-dioxoisoindolin-5-yl)glycyl)piperidin-4-yl)acetyl)piperidin-4-yl)-1H-pyrazol-4-yl)pyrazine-2-carboxylate], for which, in test [1], the “Necroptosis inhibition assay (Rescue %) 1 μM” value is 42.94% and the “Necroptosis inhibition assay (Rescue %) 10 μM” value is reported as 43.81%. In test [2], the “Degradation assay (Degradation %) 1 μM” value stood at 73.39% and the “Degradation assay (Degradation %) 10 μM” value came out at 73.33%. The same compound showed a dissociation constant (Kd) in test [3] of 7.5 nM.
Regarding `Nc1ncc(-c2cnn(C3CCN(C(=O)C4CCN(C(=O)C5CCN(c6ccc7nnn(C8CCC(=O)NC8=O)c(=O)c7c6)CC5)CC4)CC3)c2)nc1C(=O)O[C@@H](C(=O)Nc1ccc(F)cc1)c1ccccc1` (stereo partly drawn) [TDH-410, (R)-2-((4-fluorophenyl)amino)-2-oxo-1-phenylethyl 3-amino-6-(1-(1-(1-(1-(3-(2,6-dioxopiperidin-3-yl)-4-oxo-3,4-dihydrobenzo[d][1,2,3]triazin-6-yl)piperidine-4-carbonyl)piperidine-4-carbonyl)piperidin-4-yl)-1H-pyrazol-4-yl)pyrazine-2-carboxylate], in test [1] (FADD−/− Jurkat cells), the “Necroptosis inhibition assay (Rescue %) 1 μM” value was 48.51% and the “Necroptosis inhibition assay (Rescue %) 10 μM” value turned out to be 27.36%. Also, in test [2], the “Degradation assay (Degradation %) 1 μM” value was determined as 85.29% and the “Degradation assay (Degradation %) 10 μM” value came to 65.91%. In test [3], this compound yielded a Kd of 1.1 nM.
For the compound `Nc1ncc(-c2cnn(C3CCN(CCC4CCN(C5=CC(=O)N(C6CCC(=O)NC6=O)C5=O)CC4)CC3)c2)nc1C(=O)O[C@@H](C(=O)Nc1ccc(F)cc1)c1ccccc1` (stereo partly drawn) [TDH-522, (R)-2-((4-fluorophenyl)amino)-2-oxo-1-phenylethyl 3-amino-6-(1-(1-(2-(1-(1-(2,6-dioxopiperidin-3-yl)-2,5-dioxo-2,5-dihydro-1H-pyrrol-3-yl)piperidin-4-yl)ethyl)piperidin-4-yl)-1H-pyrazol-4-yl)pyrazine-2-carboxylate], in test [1] (FADD−/− Jurkat cells), the “Necroptosis inhibition assay (Rescue %) 1 μM” value came out at 21.52% and the “Necroptosis inhibition assay (Rescue %) 10 μM” value is −21.15%. Moreover, in test [2], the “Degradation assay (Degradation %) 1 μM” value is 84.27% and the “Degradation assay (Degradation %) 10 μM” value was 51.16%. In addition, in test [3], the Kd was found to be 1.3 nM.
In the case of `Nc1ncc(-c2cnn(C3CCN(CCOCCOCCNC(=O)C4CCN(c5cccc6c5C(=O)N(C5CCC(=O)NC5=O)C6=O)CC4)CC3)c2)nc1C(=O)O[C@@H](C(=O)Nc1ccc(F)cc1)c1ccccc1` (stereo partly drawn) [TDH-110, (R)-2-((4-fluorophenyl)amino)-2-oxo-1-phenylethyl 3-amino-6-(1-(1-(2-(2-(2-(1-(2-(2,6-dioxopiperidin-3-yl)-1,3-dioxoisoindolin-4-yl)piperidine-4-carboxamido)ethoxy)ethoxy)ethyl)piperidin-4-yl)-1H-pyrazol-4-yl)pyrazine-2-carboxylate], in test [1], the “Necroptosis inhibition assay (Rescue %) 1 μM” value is 55.93% and the “Necroptosis inhibition assay (Rescue %) 10 μM” value is listed as 72.8%. In addition, in test [2], the “Degradation assay (Degradation %) 1 μM” value is given as 9.84% and the “Degradation assay (Degradation %) 10 μM” value amounted to 46.89%. In test [3], this compound yielded a Kd of 5.2 nM.
